What was measured:
Type in all cases: cell-based
[1] = tested on: Mouse adrenocortical Y1 cell line; experiment: MTT assay of Y1 cell viability; details: Y1 cells, 40 μM astaxanthin, 48 hours
Description: (§1) Mouse adrenocortical Y1 cell line (ATCC, ATCC® CCL-79™) was grown in Dulbecco's modified Eagle medium (DMEM)-F12 supplemented with 10% fetal bovine serum at 37° C. in a humidified atmosphere at 5% CO2.
(§2) Astaxanthin (Model NO: ATP-9601A; Yuan Yu Bio-Tech (Taiwan), Co., Ltd) was dissolved in dimethyl sulfoxide (DMSO) at concentration of 20 mM as stock solution.
(§3) The Y1 cells were incubated with DMSO or 40 μM of astaxanthin for 1, 2 or 3 days before analysis.
(§4) Cells were washed with PBS after the treatment, followed by addition of 1 ml MTT (3-(4,5-cimethylthiazol-2-yl)-2,5-diphenyl tetrazolium bromide) solution (2 mg/ml in PBS) in each well. After incubation for 3 hours at 37° C., 2 ml of DMSO was added and cells were incubated in the dark for 30 minutes. Absorbance was measured at the wavelength of 570 nm (OD570).

[2] = tested on: Mouse adrenocortical Y1 cell line; experiment: Y1 cell number count after astaxanthin treatment (growth curve); details: 40 μM astaxanthin, 1, 2 or 3 days of treatment
Description: as §1, §2, §3

Human U87MG cell line [3] = experiment: U87MG cell number count after astaxanthin treatment; details: 100, 200 or 400 μM astaxanthin, 24 hours or 48 hours
Description: (§5) Human U87MG (ATCC, ATCC® HTB-14™) cell line was grown in DMEM medium supplemented with 10% fetal bovine serum at 37° C. in a humidified atmosphere at 5% CO2. M059K (ATCC, ATCC® CRL-2365™) and M059J (ATCC, ATCC® CRL-2366™) cell lines were grown in Dulbecco's modified Eagle medium (DMEM)-F12 supplemented with 10% fetal bovine serum at 37° C. in a humidified atmosphere at 5% CO2.
(§6) Astaxanthin was dissolved in dimethyl sulfoxide (DMSO) at concentration of 20 mM as stock solution.
(§7) The U87MG, M059K, and M059J cell lines were treated with DMSO or 100, 200 or 400 μM of astaxanthin for 24 hours or 48 hours and cell numbers were counted.

Human U87MG cell line [4] = experiment: MTT assay of U87MG cell viability; details: DMSO or different concentrations of astaxanthin
Description: as §4, §5, §6, §7

Human U2OS cell line = experiment: U2OS cell number count after astaxanthin treatment; details: 100, 200 or 400 μM astaxanthin, 72 hours
Description: Human U2OS (ATCC, ATCC® HTB-96™) cell line was grown in DMEM medium supplemented with 10% fetal bovine serum at 37° C. in a humidified atmosphere at 5% CO2.
as §6
The U2OS cell line was treated with DMSO or 100, 200 or 400 μM of astaxanthin for 72 hours and cell numbers were counted.

M059K cell line = experiment: M059K cell number count after astaxanthin treatment; details: 100, 200 or 400 μM astaxanthin, 24 hours or 48 hours
Description: as §5, §6, §7

## CC1=C(/C=C/C(C)=C/C=C/C(C)=C/C=C/C=C(C)/C=C/C=C(C)/C=C/C2=C(C)C(=O)[C@@H](O)CC2(C)C)C(C)(C)C[C@H](O)C1=O [astaxanthin, Astaxanthin]
[1]
  OD570 (MTT, cell viability) compared with DMSO treated group: reduced
[2]
  number of Y1 cells compared with control (DMSO treated) group: reduced
Human U87MG cell line [3]
  U87MG cell growth (cell number): inhibited U87MG cell growth in a dose-dependent and time-dependent manner
Human U87MG cell line [4]
  viability of U87MG cells (MTT): reduced
Human U2OS cell line
  U2OS cell growth (cell number): inhibited U2OS cell growth in a dose-dependent manner
M059K cell line
  M059K cell growth (cell number): also inhibited M059K

— patent US9572783B1, “Use of xanthophylls for the treatment of cancers” (priority 2015, dated 2017)
